Three compounds from patent US9284345B2 (priority 2007, dated 2016) can be followed below.

The structures appear in SMILES notation. Where “and” joins values, the source holds several entries; their conditions need not be identical. Equal entries are not always repeated. Where two headings read alike, the source gives them in different places.

One series deals with T1, Rat Androgen Receptor (Rattus norvegicus, UniProt P15207).
T1 construct: ventral prostates collected from 24 h-gonadectomized rats were homogenized in buffer A; from tissue; host or cells: rat ventral prostate cytosol (24 h-gonadectomized rats)
T1 sequence (P15207 1-902): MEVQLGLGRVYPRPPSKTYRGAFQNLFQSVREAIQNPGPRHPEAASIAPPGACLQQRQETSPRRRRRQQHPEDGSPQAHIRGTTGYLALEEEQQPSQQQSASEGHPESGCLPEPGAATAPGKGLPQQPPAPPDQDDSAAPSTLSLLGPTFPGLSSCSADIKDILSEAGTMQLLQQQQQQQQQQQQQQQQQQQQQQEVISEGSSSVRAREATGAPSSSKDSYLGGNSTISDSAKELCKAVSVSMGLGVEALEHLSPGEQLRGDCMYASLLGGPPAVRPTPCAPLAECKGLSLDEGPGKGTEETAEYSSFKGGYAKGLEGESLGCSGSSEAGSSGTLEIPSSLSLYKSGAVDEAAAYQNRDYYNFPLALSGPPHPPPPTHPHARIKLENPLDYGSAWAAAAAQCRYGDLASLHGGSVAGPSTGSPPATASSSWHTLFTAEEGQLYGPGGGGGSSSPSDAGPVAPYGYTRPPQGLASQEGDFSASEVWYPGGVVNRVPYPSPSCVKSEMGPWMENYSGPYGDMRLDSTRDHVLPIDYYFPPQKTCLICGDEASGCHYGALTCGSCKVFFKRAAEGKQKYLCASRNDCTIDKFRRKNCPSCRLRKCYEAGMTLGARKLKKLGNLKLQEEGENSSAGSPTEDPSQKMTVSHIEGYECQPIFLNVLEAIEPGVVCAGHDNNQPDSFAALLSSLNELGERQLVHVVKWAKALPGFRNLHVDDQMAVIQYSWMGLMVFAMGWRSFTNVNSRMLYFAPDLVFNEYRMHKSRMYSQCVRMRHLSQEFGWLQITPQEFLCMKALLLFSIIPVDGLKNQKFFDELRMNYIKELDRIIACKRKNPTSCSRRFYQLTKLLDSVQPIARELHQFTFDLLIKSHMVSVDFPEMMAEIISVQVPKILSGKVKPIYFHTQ
The series can be described thus: Androgen receptor binding assay (HAP, [3H]R1881), rat prostate cytosol. The method, then: On the morning of the binding assay, ventral prostates collected from 24 h-gonadectomized rats were homogenized in buffer A (1 g of tissue in 5 mL) and the homogenate was centrifuged as described above.
Androgen binding is measured using the hydroxylapatite (HAP) assay. In brief, the radioactive steroid [^3H]R1881 solubilized in ethanol is diluted with buffer B (10 mM Tris-HCl, 1.5 mM EDTA disodium salt, 10 mM α-monothioglycerol, pH 7.4). Aliquots of the cell or prostate cytosol preparation (0.1 ml) are then incubated with 5 nM [^3H]R1881 (0.1 ml, ˜100 000 cpm) in the presence or absence of the indicated concentrations of unlabeled compounds (0.1 ml, prepared in buffer B containing 30% ethanol) for 16-18 h at 0-4° C. Triamcinolone acetonide (TAC; 100 nM) is added to mask progesterone receptors. Unbound steroids are separated by incubation for 40 min at 0-4° C. with 0.3 ml HAP prepared in buffer P (50 mM Tris-HCl, 10 mM KH2PO4, pH 7.4). After incubation with HAP and 10 min of centrifugation at 1000×g, the pellet is washed 3 times with 1 ml of buffer P. Thereafter, the radioactivity is extracted from the pellet by incubation at room temperature for 60 min with 1 ml of ethanol. After centrifugation, the supernatant is decanted into a scintillation vial and the pellet is extracted again with ethanol. After the addition of scintillation liquid, the radioactivity is measured in a liquid scintillation counter.

Another series has as its target T2, Human Androgen Receptor (Homo sapiens, UniProt P10275).
T2 construct: expressed in transfected cells; host or cells: HEK-293 cells stably transfected with the pCMVneo-hAR plasmid (G-418 selection); cytosol used
T2 sequence (P10275 1-920): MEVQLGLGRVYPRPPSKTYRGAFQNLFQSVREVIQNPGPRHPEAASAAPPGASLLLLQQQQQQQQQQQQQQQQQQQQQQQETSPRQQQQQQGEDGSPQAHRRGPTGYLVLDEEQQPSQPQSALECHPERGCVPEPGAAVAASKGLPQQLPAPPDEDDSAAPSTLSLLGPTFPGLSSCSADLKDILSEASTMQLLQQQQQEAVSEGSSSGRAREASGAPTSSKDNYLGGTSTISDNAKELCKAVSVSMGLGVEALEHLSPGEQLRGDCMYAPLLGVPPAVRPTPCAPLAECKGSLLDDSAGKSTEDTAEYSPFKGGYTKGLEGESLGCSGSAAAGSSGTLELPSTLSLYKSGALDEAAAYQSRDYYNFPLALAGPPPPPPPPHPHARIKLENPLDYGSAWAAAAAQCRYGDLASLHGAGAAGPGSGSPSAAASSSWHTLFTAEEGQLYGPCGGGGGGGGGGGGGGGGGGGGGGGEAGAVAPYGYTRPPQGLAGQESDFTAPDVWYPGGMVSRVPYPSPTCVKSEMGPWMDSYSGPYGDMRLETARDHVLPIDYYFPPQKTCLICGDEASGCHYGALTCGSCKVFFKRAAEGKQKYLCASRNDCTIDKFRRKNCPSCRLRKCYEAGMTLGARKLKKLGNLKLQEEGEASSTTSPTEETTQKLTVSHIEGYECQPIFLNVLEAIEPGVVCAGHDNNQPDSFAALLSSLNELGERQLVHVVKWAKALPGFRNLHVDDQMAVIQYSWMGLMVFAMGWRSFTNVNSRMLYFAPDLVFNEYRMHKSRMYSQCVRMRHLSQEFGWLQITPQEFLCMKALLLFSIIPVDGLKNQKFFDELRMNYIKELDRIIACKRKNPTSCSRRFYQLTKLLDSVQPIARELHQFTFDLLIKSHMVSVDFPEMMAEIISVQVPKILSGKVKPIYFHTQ
The series is classed as binding.

In series [1] the test system is Shionogi mouse mammary carcinoma cells. The series can be described thus: cells. It counts as cell-based. To be noted: for Ki: read-out: Shionogi cells Antiandrogenic activity Ki.
The conditions of series [2]: in vivo.
A further series concerns androgen receptor. The series is described as follows: Antiandrogen / SARM / androgen profile observed on structural change. To be noted: structure-activity observation in estratriene derivatives. The text has this: Preferred positions on the steroid to this change in activities are 3, 4, 11β, 16 and 17α. […] Moreover, when we changed the 4-fluoro by a 4-chloro on EM-6583, we obtained a pure androgen (EM-5697). Similarly, when we increased the size of the chain at 17α-position on (1,4-phenylene as a spacer group), EM-8419 became a SARM. Again, when we changed the 4-fluoro by a 4-chloro on EM-8419, we obtained a pure androgen (EM-5313).
We also believed that a larger size increase could reverse the observed tendency (androgen to SARM or antiandrogen). Thus, it is not obvious to make good predictions of the biological activity of this compound family but some trends are observable.

The next series has as its system Intact Rat. The series is described as follows: In vivo activity in intact rat (organ and muscle weight). To be noted: rat, in vivo.
The subject of the next series is Immature Rat CX + DHT. The series can be described thus: animal or person. The settings on record: for change in vivo at 0.1 mg / change in vivo at 0.5 mg: Rattus norvegicus, 168 h. The series is classed as in vivo.
Series [3] concerns CX+ 4-DIONE in Mature Rat. The series is described as follows: Systemic antiandrogenic activity in mature male rats. The series is classed as in vivo.
Another series is described as follows: in vivo. To be noted: male, Sprague-Dawley, rat, plasma, po, 0.5 mg.
[4] abbreviates: po, read-out: In Vivo Antagonist % Change vs DHT (CX = −100%) SV.
Where [5] appears, read: po, read-out: In Vivo Antagonist % Change vs DHT (CX = −100%) VP.

What is called Ki is a dissociation constant, usually derived from enzyme kinetics or from competition with a known ligand. Broadly, the AUC is the area under the concentration-time curve, a measure of exposure. A higher AUC goes with high exposure.

As for `CC12CCC3c4ccc(C#N)c(Cl)c4CCC3C1CCCC2(O)Cc1cc[n+]([O-])cc1` (stereo not drawn) [EM-5945], at Rat Androgen Receptor, the “Rat Androgen Receptor Binding RBA (%) R1881 = 100%” value is given as 0.3%. In addition, on Human Androgen Receptor, the “Human Androgen Receptor Binding RBA (%) R1881 = 100%” value was determined as 2.8 ± 0.4%. In addition, in [1], the “Shionogi cells Antiandrogenic activity Ki OH-Flu/Ki compound” value amounted to 13 and the Ki was 0.9 nM. The “Prostate Conc, 7 h (Rat)” value in series [2] (po) is 1539 ng/g.

`CC12CCC3c4ccc(C#N)c(F)c4CCC3C1CCC2(O)Cc1ccc(-c2ccc[n+]([O-])c2)cc1` (stereo not drawn) [EM-8419]: in the series with androgen receptor, the “activity profile (antiandrogen, SARM or androgen)” value is given as “became a SARM”. For the same compound, in the series with Immature Rat CX, the “In Vivo Agonist Rat CX % change vs CX (DHT CONT = +100%) Bulbo” value is given as “+115 ± 4%”, the “In Vivo Agonist Rat CX % change vs CX (DHT CONT = +100%) SV” value is “+26 ± 2%” and the “In Vivo Agonist Rat CX % change vs CX (DHT CONT = +100%) VP” value is reported as “+39 ± 6%”. At Human Androgen Receptor, the “Human Androgen Receptor Binding RBA (%) R1881 = 100%” value is 83 ± 35%. In the series with Intact Rat, the “In Vivo Intact Rat % change vs Intact CONT (Intact CONT = +100%; CX CONT = 0%) Bulbo” value is recorded as “+238 ± 12%”, the “In Vivo Intact Rat % change vs Intact CONT (Intact CONT = +100%; CX CONT = 0%) SZ” value is recorded as “+76 ± 2%” and the “In Vivo Intact Rat % change vs Intact CONT (Intact CONT = +100%; CX CONT = 0%) VP” value is “+89 ± 5%”. Also, in the series with Immature Rat CX + DHT (rat, in vivo, po), the “In Vivo Anti-A Rat CX + DHT % change vs DHT (CX CONT = −100%) Bulbo” value is recorded as “+36 ± 11%”, the “In Vivo Anti-A Rat CX + DHT % change vs DHT (CX CONT = −100%) SV” value is −33 ± 7% and the “In Vivo Anti-A Rat CX + DHT % change vs DHT (CX CONT = −100%) VP” value is −36 ± 0%. In series [1], the “% of stim of basal at 10^−7M (% over basal)” value is on record as “+94 ± 17%” and the “% of stim of basal at 10^−7 M (DHT = 100%)” value is “+62 ± 11%”. For the same compound, in series [1] (0.0003 µM), the “% of inh of DHT at 10^−7 M (Basal = 100%)” value was “+21 ± 11%”. Besides, the “AUC 24 h 0.5 mg/rat oral” value in [2] was 5725 ± 595 ng·h/mL.

Consider `C[C@]12CCC3c4ccc(C#N)c(F)c4CCC3C1CC[C@@]2(O)Cc1cc[n+]([O-])cc1` (stereo partly drawn) [EM-5854], for which, in [3] (0.2 mg/rat/per os/ID), the “% change vs 4-DIONE Cont (CX Cont = −100% inh) Seminal Vesicles” value is on record as −69 ± 7% and the “% change vs 4-DIONE Cont (CX Cont = −100% inh) Ventral Prostate” value is −34 ± 7%. Moreover, in [3] (1 mg/rat/per os/ID), the “% change vs 4-DIONE Cont (CX Cont = −100% inh) Seminal Vesicles” value is recorded as −109 ± 5% and the “% change vs 4-DIONE Cont (CX Cont = −100% inh) Ventral Prostate” value was −67 ± 2%. Besides, the “reversal of the stimulatory effect of 4-dione on ventral prostate weight” value in series [3] (daily oral dose of 1 mg/rat) is listed as 67%. In series [3] (orchidectomized mature rats with 4-dione implants), the “4-dione-induced stimulation of seminal vesicle weight” value was “completely reversed”. Moreover, the “activity profile (antiandrogen, SARM or androgen)” value with androgen receptor is “pure antiandrogen”. Besides, the AUC in the series “in vivo” came out at 2930 ± 233 ng·h/mL. Moreover, the “Rat Androgen Receptor Binding RBA (%) R1881 = 100%” value at Rat Androgen Receptor is 0.4 ± 0.1%. The “Human Androgen Receptor Binding RBA (%) R1881 = 100%” value on Human Androgen Receptor is listed as 0.63 ± 0.08%. In the series on Immature Rat CX + DHT (setting [4]), the change in vivo at 0.1 mg was -86 ± 2% and the change in vivo at 0.5 mg is -85%. For the same compound, in the series on Immature Rat CX + DHT (setting [5]), the change in vivo at 0.1 mg was -46 ± 2% and the change in vivo at 0.5 mg was -76%. In addition, in the series with Immature Rat CX + DHT (rat, in vivo), the “inhibition of DHT-stimulated seminal vesicle weight” value was found to be 85%, the “inhibition of DHT-stimulated ventral prostate weight” value is reported as 76% and the “potency on rat androgen-sensitive parameters relative to currently available antiandrogens” value was “approximately 5 times”. Besides, in [1], the “Shionogi cells Antiandrogenic activity Ki OH-Flu/Ki compound” value is 5.5 and 5.5 ± 1.2; the Ki worked out at 2.5 ± 0.4 nM.
